Columns and labels:
estrogenic response = assay: Estrogenic Response Test, immature rats (uterine weight); format: in vivo, immature 40-45 g. female rats; settings: Experiment C; total dose 3 mg., s.c.
Protocol: The first test reported below is used to determine the estrogenic potency of compounds. It is well known that many compounds having antiestrogenic activity also, typically, have estrogenic activity. As has been explained, estrogenic activity is a liability in an antiestrogen, and thus it is important to identify antiestrogens having a minimum amount of estrogenic activity. This test was conducted with immature 40-45 g. female rats, immature 11-13 g. mice, and adult ovariectomized mice. The rats were tested in groups of six, and mice in groups of ten. All of the laboratory animals were from standardized strains and were equilibrated to the laboratory before the test started. Each test was begun by administering the test compound daily for three days, as a subcutaneous injection or by oral gavage, as indicated below in the reports of individual experiments. Untreated control animals were included in each experiment, along with animals to which estradiol was administered subcutaneously. The estradiol-treated animals provided positive controls, showing the physiological effect of a potent estrogen on the individual group of animals used in the experiment. […] The test animals were treated for three days and sacrificed on the fourth day, and the uteri were removed, freed of extraneous tissue, and blotted with paper towels. The uteri were weighed to the nearest 0.1 mg. The tables below report the results of representative experiments. The doses of estradiol and of the compound of this invention are given as the total of the three daily doses. The uterine weights are given, in mg., as the means of all of the organ weights of the animals in a group. Compounds are referred to by their example numbers above.

[1] = Stability of the product on observation after several days; format: physicochemical
[2] = tested on: estrogenic response of estradiol; assay: Antiestrogenic Test, immature rats (uterine weight); format: in vivo; settings: Experiment I, 3 mg., s.c. + estradiol 0.3 mcg.
Protocol: This test was conducted with immature 40-45 g. female rats, immature 11-13 g. mice, and adult ovariectomized mice. The rats were tested in groups of six, and mice in groups of ten. All of the laboratory animals were from standardized strains and were equilibrated to the laboratory before the test started. Each test was begun by administering the test compound daily for three days, as a subcutaneous injection or by oral gavage, as indicated below in the reports of individual experiments.
The test animals were treated for three days and sacrificed on the fourth day, and the uteri were removed, freed of extraneous tissue, and blotted with paper towels. The uteri were weighed to the nearest 0.1 mg.
The uterine weights are given, in mg., as the means of all of the organ weights of the animals in a group. Compounds are referred to by their example numbers above.
The same standardized types of laboratory animals which were used in the experiments described above were also used in these experiments. […] Untreated control animals were used in each experiment. […] The dosage and sacrifice schedule, and the method of determining uterine weights and reporting data, were the same as the methods described above under Test 1.

uterine epithelial cells = settings: known side-effect of earlier anti-estrogens; cited from earlier work

## O=C(O)C(F)(F)F.O=C(c1ccc(OCCN2CCCCC2)cc1)c1c(-c2ccc(OC(=O)C(F)(F)F)cc2)sc2cc(OC(=O)C(F)(F)F)ccc12 [Example 9, 6-trifluoroacetoxy-2-(4-trifluoroacetoxyphenyl)-3-[4-(2-piperidinoethoxy)benzoyl]benzo[b]thiophene, trifluoroacetate]
Estrogenic response
  Uterine weight: 31.3 mg
[1]
  hydrolysis of ester groups: some hydrolysis of one or both ester groups had occurred
[2]
  Uterine weight: 38.1 mg

## CC/C(=C(\c1ccccc1)c1ccc(OCCN(C)C)cc1)c1ccccc1 [Tamoxifen, 1-(4-β-dimethylaminoethoxyphenyl)-1,2-diphenylbut-1-ene]
Uterine epithelial cells
  effect on uterine epithelial cells: causes abnormal growth of uterine epithelial cells

Source: patent publication US4418068A, “Antiestrogenic and antiandrugenic benzothiophenes” (Eli Lilly and Company, priority 1981, dated 1983)
